Data published in ChEMBL document CHEMBL1201862, “PubChem BioAssay data set” (2004).
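A five-concentration, 48-hour dose response in 96-well plates underlies each endpoint, interpolated linearly between surrounding concentrations. GI50 = concentration required for 50% inhibition of growth.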 Activity calls are given as the source filed them. Rule as the data show it: active = GI50 up to about 1.1 µM and inactive = higher.

What was measured:
Assay in all cases: growth of human tumour cells (NCI), 48 h
A498 = test system: A498
HCC 2998 = test system: HCC 2998
SF-268 = test system: SF-268
SK-OV-3 = test system: SK-OV-3
NCI-H460 = test system: NCI-H460
MOLT-4 = test system: MOLT-4
SK-MEL-28 = test system: SK-MEL-28
786-0 = test system: 786-0
NCI-H226 = test system: NCI-H226
Malme-3M = test system: Malme-3M
SK-MEL-5 = test system: SK-MEL-5
HCT-15 = test system: HCT-15
T47D = test system: T47D
RXF 393 = test system: RXF 393
SN12C = test system: SN12C
PC-3 = test system: PC-3
KM12 = test system: KM12
CAKI-1 = test system: CAKI-1
HL-60 = test system: HL-60

SMILES | GI50 (A498) | GI50 (HCC 2998) | GI50 (SF-268) | GI50 (SK-OV-3) | GI50 (NCI-H460) | GI50 (MOLT-4) | GI50 (SK-MEL-28) | GI50 (786-0) | GI50 (NCI-H226) | GI50 (Malme-3M) | GI50 (SK-MEL-5) | GI50 (HCT-15) | GI50 (T47D) | GI50 (RXF 393) | GI50 (SN12C) | GI50 (PC-3) | GI50 (KM12) | GI50 (CAKI-1) | GI50 (HL-60)
CCCCCC(/C=N/NC(N)=S)C(O)(C(F)(F)F)C(F)(F)F (stereo unspecified) | > 10 µM (inactive) | > 10 µM (inactive) | > 10 µM (inactive) | > 10 µM (inactive) | > 10 µM (inactive) | > 10 µM (inactive) | > 10 µM (inactive) | > 10 µM (inactive) | > 10 µM (inactive) | > 10 µM (inactive) | > 10 µM (inactive) | > 10 µM | > 10 µM (inactive) | > 10 µM (inactive) | > 10 µM (inactive) | > 10 µM (inactive) | > 10 µM (inactive) | > 10 µM (inactive) | 
C=CCNC1=C2C[C@@H](C)C[C@@H](OC)[C@H](OC(=O)CCN(C)C)[C@H](C)/C=C(\C)[C@@H](OC(N)=O)[C@H](OC)/C=C\C=C(/C)C(=O)NC(=CC1=O)C2=O | 0.297 µM (active) | 0.0641 µM (active) | 1.35 µM (inactive) | 0.0327 µM (active) | 0.0627 µM (active) | 1.53 µM (inactive) | 0.171 µM (active) | 1.43 µM (inactive) |  | 0.0643 µM (active) | 0.0508 µM (active) | 0.535 µM | 1.13 µM (inactive) | 0.182 µM (active) | 0.0869 µM (active) | 0.0386 µM (active) | 0.0342 µM (active) | 1.88 µM (inactive) | 0.362 µM (active)
COc1cc(S(=O)(=O)Nc2nc(-c3ccc(N)cc3)cs2)ccc1Cl | 84.3 µM (inactive) |  | 75.7 µM (inactive) | 97.9 µM (inactive) | 84.9 µM (inactive) | 53.7 µM (inactive) | 69.3 µM (inactive) | > 100 µM (inactive) | 41.7 µM (inactive) | > 100 µM (inactive) | 38.6 µM (inactive) | 63.8 µM | 38.5 µM (inactive) | 38.1 µM (inactive) | 34.4 µM (inactive) | 51.8 µM (inactive) | 72.1 µM (inactive) | 73.5 µM (inactive) | 45.7 µM (inactive)
Cc1c(O)c(C)c2c(C)cn(C(=O)C(C)(C)C)c2c1C | 16.5 µM (inactive) | 31.3 µM (inactive) | 31.4 µM (inactive) | 22.2 µM (inactive) | 29.5 µM (inactive) | 23 µM (inactive) | 15.3 µM (inactive) | 15.2 µM (inactive) | 12.1 µM (inactive) |  | 14.7 µM (inactive) | 21.8 µM | 23.5 µM (inactive) | 12.4 µM (inactive) | 17.9 µM (inactive) | 21.2 µM (inactive) | 14 µM (inactive) |  | 18.7 µM (inactive)
CC(C)=CCc1cc(C2COc3cc4c(c(O)c3C2=O)C=CC(C)(C)O4)c(O)cc1O (stereo unspecified) | 16.5 µM (inactive) | 18.7 µM (inactive) | 13.2 µM (inactive) | 15.7 µM (inactive) | 14.3 µM (inactive) | 5.61 µM (inactive) | 22.4 µM (inactive) | 19 µM (inactive) |  | 13.4 µM (inactive) | 11.3 µM (inactive) | 13.7 µM | 4.99 µM (inactive) | 6.59 µM (inactive) | 13.5 µM (inactive) | 12.4 µM (inactive) | 14.9 µM (inactive) | 17.2 µM (inactive) | 8.63 µM (inactive)
COC(=O)C1C(=O)CC(C)(O)C(C(=O)OC)C1c1ccc(N(C)C)cc1 (stereo unspecified) | > 100 µM (inactive) | > 100 µM (inactive) | > 100 µM (inactive) |  | > 100 µM (inactive) | > 100 µM (inactive) | > 100 µM (inactive) | 12 µM (inactive) | > 100 µM (inactive) | > 100 µM (inactive) | > 100 µM (inactive) | > 100 µM | > 100 µM (inactive) | > 100 µM (inactive) | > 100 µM (inactive) | > 100 µM (inactive) | > 100 µM (inactive) | > 100 µM (inactive) | > 100 µM (inactive)
O=c1cc(-c2ccccc2)nc(-n2[nH]c3c(c2=O)CCCC3)[nH]1 | 17.6 µM (inactive) |  | 2.7 µM (inactive) | 17.4 µM (inactive) | 1.08 µM (active) | 2.9 µM (inactive) | 4.29 µM (inactive) | 1.91 µM (inactive) | 3.82 µM (inactive) | 11.1 µM (inactive) | 4.78 µM (inactive) | 1.7 µM | 1.56 µM (inactive) | 0.656 µM (active) | 10.8 µM (inactive) | 5 µM (inactive) | 13.3 µM (inactive) | 7.18 µM (inactive) | 2.73 µM (inactive)
CC(=N/NC(=S)N1CCCCC1)/C(C)=N\NC(=S)N1CCCCC1 | 1.5 µM (inactive) | 2.12 µM (inactive) | 1.67 µM (inactive) | 1.83 µM (inactive) | 1.74 µM (inactive) | 2.13 µM (inactive) | 2.08 µM (inactive) | 1.76 µM (inactive) | 1.57 µM (inactive) | 2.08 µM (inactive) | 1.57 µM (inactive) | 2.34 µM | 1.54 µM (inactive) | 1.59 µM (inactive) | 1.69 µM (inactive) | 1.86 µM (inactive) | 1.82 µM (inactive) | 1.71 µM (inactive) | 
B.CC(=O)OC1CN2CCC1CC2 (stereo unspecified) | > 100 µM (inactive) | > 100 µM (inactive) | > 100 µM (inactive) | > 100 µM (inactive) | > 100 µM (inactive) | > 100 µM (inactive) | > 100 µM (inactive) | > 100 µM (inactive) | > 100 µM (inactive) | > 100 µM (inactive) | > 100 µM (inactive) | > 100 µM | > 100 µM (inactive) | > 100 µM (inactive) | > 100 µM (inactive) | > 100 µM (inactive) | > 100 µM (inactive) |  | > 100 µM (inactive)
COC(=O)c1c(C)cccc1C1CN=NC12Cc1cccc(C)c1C2=O (stereo unspecified) | 52 µM (inactive) | 38 µM (inactive) | 83.4 µM (inactive) |  | 12.6 µM (inactive) |  | 29.6 µM (inactive) | 39.1 µM (inactive) | 20.9 µM (inactive) | 29.1 µM (inactive) | 17.8 µM (inactive) | 34 µM | 24 µM (inactive) | 30.5 µM (inactive) | 27.2 µM (inactive) | 20.3 µM (inactive) | 31.7 µM (inactive) | 37.7 µM (inactive) | 11.7 µM (inactive)
Cc1ccc(-c2n[nH]c(=O)[nH]2)cc1[N+](=O)[O-] | > 100 µM (inactive) | 63.4 µM (inactive) | > 100 µM (inactive) |  | > 100 µM (inactive) | > 100 µM (inactive) | > 100 µM (inactive) | > 100 µM (inactive) | > 100 µM (inactive) | > 100 µM (inactive) | > 100 µM (inactive) | > 100 µM | > 100 µM (inactive) | > 100 µM (inactive) | > 100 µM (inactive) | > 100 µM (inactive) | > 100 µM (inactive) | > 100 µM (inactive) | > 100 µM (inactive)
